The values that follow come from patent publication US20110076258A1, “METHODS OF MODULATING T CELL- DEPENDENT IMMUNE RESPONSES” (Converge Biotech Inc., priority 2008, published 2011).

One test deals with MAPK. The test is described as follows: Protracted MAPK (p38, Erk) activation after 16 h CD3 stimulation. The following applies: crt^−/− T cells, CD3 antibodies 16 h. Format: cell-based, mouse.
The test system of another test is naïve CD4^+ T cells. The test is described as follows: IL-2 ELISA in culture supernatants, plate-bound CD3 and CD28 stimulation. Format: cell-based, mouse. To be noted: versus untreated cells, 48 h. The source says:
An inhibitory effect of oATP on peripheral blood T cell proliferation has been described (Baricordi et al., Blood 87:682-690 (1996)). […] We therefore hypothesize that ATP released from activated T cell is part of an autocrine loop, which plays an essential role in productive T cell activation.
(In general: In an ELISA, binding on a coated surface is turned into a signal by an enzyme label.)

The next test deals with cd3ε^−/− mice. The test is described as follows: Treg cell generation in murine model of inflammatory bowel disease. The following applies: 3 mM oATP in 100 μl i.v., with transfer or 16 hours after; day 28. Format: in vivo, mouse. An excerpt: FIG. 14: Experimental protocol for Treg generation in a mouse model of inflammatory bowel disease. • CD3ε^−/− mice were adoptively transferred with 2×10^5 naïve CD4^+ T cells; 2×10^5 naïve CD4^+ T cells with oATP; 2×10^5 naïve CD4^+ T cells with administration of oATP sixteen hours after the transfer; or 2×10^5 naïve CD4^+ T cells with 10^5 natural Treg cells. oATP-treated animals received daily intravenous oATP administration on days 2-5, no oATP administration on days 6 and 7, and daily intravenous oATP administration on days 8-12. Mice were analyzed for CD4^+ subpopulations on day 28 (See Example 12).
FIG. 15: Treg cell generation with oATP treatment in a mouse model of inflammatory bowel disease. • a) Colons, spleens and mesenteric lymph nodes of test animals were assessed for inflammation fourteen days after the last injection of oATP (see Example 12). • b) FACS analysis identifying the percentage of CD4^+CD25^highFoxp3 regulatory T cells. • c) FACS analysis identifying effector memory T cells as CD4^+CD44^+CD62L^− or CD4^+CD25^+CD69^+. The ratio of Treg cells to effector memory T cells is shown. […]
Four experimental groups of CD3ε^−/− mice were tested for Treg generation (FIG. 14). […] Mice were analyzed on day 28.
The colons of the animals were assessed for inflammation 14 days after the last injection of oATP (FIG. 15A). […]

For `Nc1ncnc2c1ncn2[C@@H](C=O)O[C@@H](C=O)COP(=O)(O)OP(=O)(O)OP(=O)(O)O` [oATP], the “prolonged activation of MAPK (p38 MAPK and Erk)” value in the test on MAPK is reported as “almost completely abolished”. In addition, the “IL-2 in the cell culture supernatant” value with naïve CD4^+ T cells was “significant reduction”. Further, the “Treg generation from naïve T cells” value in the test with cd3ε^−/− mice was “most effective when oATP is present during the first activation of the naïve T cells”.
